According to patent publication US20040232089A1, “Biocidal compounds for treating water” (VANETTA S.p.A., priority 2003, published 2004):

How the values were obtained:
Chlorella sp. = experiment: Inhibition of planktonic microalgae duplication; assay type: cell-based; settings: after 96 hours of treatment
Procedure: This test was carried out by using the microalga Chlorella sp., it is a small (2-10 microns diameter) green single celled microalga with a spherical cell shape. This genus is capable of both autotrophic and heterotrophic growth which may contribute to its ability to rapidly overtake other algae in culture. In laboratory, Chlorella coltures are started by taking from the branchs, inoculates basis, about 10 ml of monospecific colture, and adding 700 ml of […] filtered sea-water, enriched with Walne colture medium and vitamins.
Flasks with algae are kept in a thermostatic room, at 20° C.±0,5; lighting is supplied by 30 watt fluorescent neon tubes and by a 18 watt Osram-fluora lamp, with a photoperiod 16:8 light:dark. Oxygenation is warranted by a continuous air flux in the flask, this is also a way to avoid cells sedimentation. Test was carried out in the thermostatic room, at 20° C., with a 16:8 light:dark cycle in glass test-tube. The tested product has been dissolved in the culture medium, at a double concentration respect to the final wanted. […] Test-tubes were aerated, and kept in thermostatic room for 96 hours; after this period of time an aliquot of each replicate for each concentration was taken, and cellular densities were counted using an haemocytometer.

Vibrio sp. AD18 = experiment: Microdilution broth MIC/MBC; assay type: cell-based; settings: 24 h at 25° C., dark
Procedure: (§1) b) Serial dilution test: the antibiotic activity is determined quantitatively by using the known sensitivity of a test strain towards an antibiotic which is expressed numerically as the minimal inhibitory concentration (MIC) and the minimal bactericidal concentration (MBC).
(§2) Procedure: serial dilutions of the antibiotic to be tested are pipetted into the antibiotic broth, this is then inoculated with a defined quantity of the relevant test strain (FIG. 4).
(§3) The Minimum Inhibitory Concentration (MIC) was defined as the lowest concentration of antibiotic which prevented visual turbidity after incubation.
(§4) The Minimum Bactericidal Concentration (MBC) is defined as the lowest concentration of an antibiotic killing the majority of a bacterial inoculum (99.9%, equivalent to a thousand-fold reduction of the inoculum). Method: Following a broth dilution MIC test, from each tube in the dilution series a defined volume (20 μL) is spread onto plates without antibiotics. To minimize the carry-over effect of antibiotic from the test tubes, let the drop “dry” before the inoculum is spread over the surface (a section of the agar plate). The plates were incubate overnight (longer for slow growing bacteria) and then counted the number of colonies growing from each of the test tubes. The number of colonies corresponding to a thousand-fold reduction (MBC) can be calculated if the colony count of the start inoculum is known.
(§5) The microdilution broth method was used to evaluate the MIC and the MBC against 15 aerobic bacteria isolated from culture collection and seawater. Antimicrobial dilutions were performed using Mueller Hinton Broth supplemented with divalent cations. The tested product was dissolved in the medium to obtain a final range concentration between 0,12 to 64 mg/l.
(§6) Antimicrobial assays were performed in dark, and results were read after 24 h of incubation at 25° C. Each test towards the same indicator strain was performed in three replicates.
(§7) The assayed strains were environment isolates identified by an internal number or standard strains identified by the ATCC or NCIMB accession number.

[1] = system: Pseudomonas putida NCIMB 1960; experiment: Microdilution broth MIC/MBC; assay type: cell-based; settings: 24 h at 25° C., dark
Procedure: as §1, §2, §3, §4, §5, §6, §7

[2] = system: Escherichia coli ATCC 25922; experiment: Microdilution broth MIC/MBC; assay type: cell-based; settings: 24 h at 25° C., dark
Procedure: as §1, §2, §3, §4, §5, §6, §7

Vibrio sp. AE7 = experiment: Microdilution broth MIC/MBC; assay type: cell-based; settings: 24 h at 25° C., dark
Procedure: as §1, §2, §3, §4, §5, §6, §7

[3] = system: Vibrio parahaemolyticus AD19; experiment: Microdilution broth MIC/MBC; assay type: cell-based; settings: 24 h at 25° C., dark
Procedure: as §1, §2, §3, §4, §5, §6, §7

Aeromonas sp. CH34 = experiment: Microdilution broth MIC/MBC; assay type: cell-based; settings: 24 h at 25° C., dark
Procedure: as §1, §2, §3, §4, §5, §6, §7

[4] = system: Pseudomonas elongata NCIMB 1141; experiment: Microdilution broth MIC/MBC; assay type: cell-based; settings: 24 h at 25° C., dark
Procedure: as §1, §2, §3, §4, §5, §6, §7

[5] = system: Balanus amphitrite nauplii; experiment: Barnacle efficacy test; assay type: in vivo
Procedure: This efficacy tests was carried out by using Balanus amphitrite nauplii (Crustacea: Cirripedia). Specimens of this organism are collected in nature, and then maintained and reared in our laboratories, following a standard methodology. Adult organisms regularly produce larvae at the second naupliar stage, characterized by the typical triangular carapace, with a shield shape. […] Stage II nauplii have been used; immediately after their emission from adults larvae were divided and put in a beaker with […] filtered natural sea-water.

[6] = system: Mytilus galloprovincialis; experiment: Mussels efficacy test (trocophora and veliger larvae); assay type: in vivo; settings: after 24 hours
Procedure: Mussels are bivalve shellfish that grow quickly and profusely. They have two identical, convex shells. These shells are elongate, triangular and joined by a rubbery hinge ligament on the upper side. There are three main periods in the Mytilus galloprovincialis life cycle: the larval, juvenile, and adult stages. The larvae are planktonic (float in water column) during their initial three life stages: trochophore, veliger, and pediveliger.
Efficacy tests were carried out by using two larval stages of this organism: trocophora and veliger. Adult specimens of this organism were collected and transferred into our laboratories, where they were cleaned from debris, and put in single 200 ml beakers, with […] filtered natural sea-water. Through a thermal shock, sexual products (eggs and sperma) were obtained. Fertilized eggs (about 300.000) were filtered and put in 1000 ml beakers, with […] filtered natural sea-water. Cultures were maintained at 20° C., with a photoperiod of 16:8 light:dark. After the first 24 hours post-fertilization, trocophora stage is present. Larvae were reared and fed with a planktonic alga, Pavlova lutheri, every day they were filtered, and water was changed. Veliger stage is reached about 48-72 hours after fertilization.

[7] = Biodegradability OECD 301 A (92/69/EEC C4-A); settings: 7 days after the beginning of the test
Procedure: In fact, based on data available with respect to the most similar compounds to the menadione derivatives disclosed herein, one would expect a degradability in the range of 0% (percentage calculated based on the initial mass expressed in mg/l) typical of menadione (2-methyl-1,4-naphthalenedione) and 17% (assessed after 28 days) typical of menadione sodium bisulphite (which calculation was performed in accordance with the guidelines OECD301 A attached to directive EEC 92/69/EEC C4-A).
Finally biodegradability was also evaluated according to standard 92/69/EEC C4-A. From the data, both MNB and MPB result to have a remarkably better biodegradability than 2-methyl-1,4-naphthalenedione and particularly than MSB.

SMILES: CC1(S(=O)(=O)O)CC(=O)c2ccccc2C1=O.NC(=O)c1cccnc1 (stereo not drawn) [MNB, menadione nicotinamide bisulphite]
- LC1 (Chlorella sp.): 0.002 mg/L
- LC50 (Chlorella sp.): 0.055 µg/mL
- MBC (Vibrio sp. AD18): 32 µg/mL
- MIC (Vibrio sp. AD18): 16 µg/mL
- MBC [1]: >64 µg/mL
- MIC [1]: >64 µg/mL
- MBC [2]: >64 µg/mL
- MIC [2]: >64 µg/mL
- MBC (Vibrio sp. AE7): 64 µg/mL
- MIC (Vibrio sp. AE7): 32 µg/mL
- MBC [3]: 4 µg/mL
- MIC [3]: 1 µg/mL
- MBC (Aeromonas sp. CH34): 64 µg/mL
- MIC (Aeromonas sp. CH34): 32 µg/mL
- MBC [4]: 16 µg/mL
- MIC [4]: 8 µg/mL
- LC50 ([5]; 24 hours): 0.228 µg/mL
- LC50 ([5]; 48 hours): 0.222 µg/mL
- LC50 ([6]; trocophorae): 0.108 µg/mL
- LC50 ([6]; veliger): 0.167 µg/mL
- degradability relative to that of MSB [7]: eight
